Reference: patent US10729693B2, “Compositions and methods for the treatment of endometriosis” (PONCE MEDICAL SCHOOL FOUNDATION, INC., priority 2018, dated 2020)

Columns and labels:
Format in all cases: in vivo, rat
[1] = system: CRH, UCN1, CRHR1, CRHR2 and glucocorticoid receptor (GR) mRNA; assay: qRT-PCR of mRNA levels in uterus and endometriosis vesicles; settings: normalized to sham uterus, day 60
Procedure: (§1) Endometriosis vesicles and normal uterine tissue from endometriosis or sham rats, were lysed in an RLT buffer (QIAGEN, Germantown, Md.) using the BULLET BLENDER Tissue Homogenizer (NEXT ADVANCE, Averill Park, N.Y.). The total RNA from the lysates were extracted according to RNEASY Mini Kit manufacturer's protocol (QIAGEN, Germantown, Md.). RNA concentration and purity were measured on a NanoDrop™ 2000 UV spectrophotometer (Thermo Scientific™, Wilmington, USA). Concentration and quality of RNA samples were acquired based on the ratio of absorbance at 260/280 nm in the spectrophotometer. To carry out the synthesis of cDNA from RNA samples a total reaction volume of 20 μl including 0.1 μg of total RNA concentration and synthesis reagents was used. A iScript™ cDNA Synthesis Kit was used according to manufacturer's protocol (BIO-RAD, Hercules, Calif.). Reactions were carried out in T-100™ thermal cycler (BIO-RAD, Hercules, Calif.). RT-PCR running method was as follows: 25° C. for 5 min, 42° C. for 30 min, 85° C. for 5 min. Samples were stored at −80° C. for later experimentation or qRT-PCR.
(§2) Real time quantitative PCR (qPCR) was used to evaluate changes in mRNA expression. For this, 25 μl of a total volume of reaction assay was used with 1:10 dilution of cDNA with iQ™ SYBR Green Supermix (BIO-RAD Hercules, Calif.) in a 96 well plate according to the manufacturer protocol and amplified in a Quant Studio™ 12 K Flex Real time PCR System (Applied Biosystems™, Carlsbad, Calif.). Commercial primers for CRH, UCN1 CRHR1, CRHR2 and glucocorticoid receptor (GR) were purchased from QIAGEN (Germantown, Md.). Real time PCR cycles protocol was as follows: 95° C. for 10 min. for enzyme activation followed by 40 cycles of denaturing at 95° C. for 15 sec. and annealing at 60° C. for 1 min. All changes in gene expression were normalized against GAPDH of each sample. CT values and changes per gene expression level were automatically analyzed by the Quantstudio™ 12 K Flex Software (Applied Biosystems™, Carlsbad, Calif.). All samples were run in duplicate. For comparison purposes, mRNA from sham rats were always run within the same plate as experimental samples from vehicle treated and antalarmin treated groups.
GraphPad Prism 6.0 (GraphPad Software, San Diego, Calif.) was used to prepare graphs and run statistical analyses. Data is presented as mean difference+SEM and a p value <0.05 was considered statistically significant. The variability between groups was first assessed followed by a test for outlier values. […] A One-way analysis of variance (ANOVA) was used to compare behaviors. A one-sample t-test against the sham rats value normalized to 1.0. was used to assess RT-PCR results. A repeated measures One-way ANOVA was used to compare changes in weight gain between treatment groups.

stress reactivity = assay: Swim stress challenge; settings: day 59; vs vehicle control group
[2] = system: CRHR1, CRHR2, CRH and GR mRNA in hippocampus; assay: qRT-PCR of mRNA levels in hippocampus; settings: day 60
Procedure: as §1, §2
Endometriosis and antalarmin have long-lasting effects in the brain. Previous work reported a decrease in CRH within hippocampus of animals with endometriosis compared to sham rats that were subject to stress. Given that antalarmin readily crosses the blood brain barrier, the effects of treatment in the hippocampus was quantified. […] It appears that the increase in CRH1 was balanced out by an equally similar increase in CRH2. This was not observed in the vehicle treated groups (FIGS. 10A and 10B). mRNA was collected and quantified as described in Example 1. […]

anxiety behaviors = assay: Anxiety behaviors: open field and elevated zero maze; settings: day 60; compared to sham group
Procedure: One day before behavioral assessment and sacrifice a subset of rats (6 vehicle and 6 antalarmin) were subjected to an acute episode of swim stress of 10 min and compared to no stress controls to assess how rats respond to acute activation of the HPA axis. For this, animals were placed in a Plexiglas tank for 10 min in water at 25° C. Rats were towel dried and kept in warm cage after swim until fur dried. The next day, two behavioral tasks were used to assess anxiety behaviors. The open field test is used to quantify exploratory and locomotor activity of a rodent in an open arena. The apparatus used was a square wood arena (91×91×38 cm) with overhead light illumination and video monitoring to record animal activity using Any-Maze software (Stoelting, Wood Dale, Ill.). The following behaviors were quantified during 20 minutes: 1) total distance moved, 2) time spent moving, 3) time spent in the center of the arena, 4) time spent near the walls of the arena (defined by the 15 cm of floor arena closest to the walls) and 5) total fecal pellets. The more time the animal spends in the center of the arena compared to the space adjacent to the wall is considered as having less anxiety. At the end of the testing period, animals were returned to the home cage and after a 5-min break were tested in the elevated zero-maze.
The elevated zero-maze is very similar to the more traditional elevated plus maze test, with the advantage of not having a neutral (undefined) zone in the middle. The apparatus consisted of a circle with an arm width of 10 cm and elevated 40 cm from floor. […] Rats were allowed to run the maze for 5 consecutive minutes and recorded using the Any-Maze software (Stoelting, Wood Dale, Ill.). The following parameters were analyzed by the Any-Maze program: 1) total distance travelled in the maze, 2) time spent in the open/closed arms and 2) number of entries made by the rodent onto the open/closed arms. When 60% of the animal body entered the arm, the program counted is as an entry. In addition, total fecal pellets in the maze were quantified. […]

[3] = normalized to sham, large variability

CCCCN(CC)c1nc(C)nc2c1c(C)c(C)n2-c1c(C)cc(C)cc1C [antalarmin]
UCN1 mRNA in uterus and vesicles [1]: not altered | glucocorticoid receptor (GR) mRNA in uterus [1]: no changes in uterus | glucocorticoid receptor (GR) mRNA in vesicles [1]: significant mRNA fold increase | CRHR2 mRNA in uterus and vesicles ([1]; increase only in vesicles of vehicle animals): No other changes were observed | CRHR1 mRNA in endometriosis vesicles ([1]; increased in vehicle group): this increase was not observed | CRH mRNA in uterus and vesicles ([1]; two-fold increase in vehicle rats): this increase was not observed | swim stress behavioral parameters (immobility, swimming, struggling, diving) (stress reactivity): not different from the control group | hippocampal CRH mRNA ([2]; compared to sham): increase in hippocampal CRH mRNA of similar magnitude | hippocampal GR mRNA ([2]; compared to sham): fourfold increase | hippocampal CRHR1 mRNA increase [2, 3]: 15 fold | hippocampal CRHR2 mRNA increase [2, 3]: 15 fold | open field: total distance traveled (anxiety behaviors): significantly lower | zero maze: locomotor activity (anxiety behaviors): higher locomotor activity | zero maze: time in the open arms (anxiety behaviors): strong trend for both groups of rats with endometriosis to spend less time in the open arms
